Measurements from ChEMBL document CHEMBL1128895, “Synthesis and pharmacological characterization of A-80426: A putative novel antidepressant combining -2 antagonism with 5-HT uptake inhibition” (Bioorg Med Chem Lett, 1995).

Experiments:
Rattus norvegicus [1] = species on record: Rattus norvegicus; test: […] p-chloroamphetamine (PCA) induced hyperactivity in rats; type: functional
[2] = target: Serotonin 1 (5-HT1) receptor (Rattus norvegicus, UniProt P28564+P30940+P19327+P28565); test: Compound was evaluated for its binding affinity to 5-hydroxytryptamine 1 receptor in rat brain using [3H]HT radioligand assay; type: tissue-based
Rattus norvegicus [3] = species on record: Rattus norvegicus; test: Evaluated for inhibition of dopamine, biogenic amine reuptake in synaptosomal rat brain preparations; type: functional
[4] = target: T1, Adrenergic receptor alpha-1 (Rattus norvegicus, UniProt P15823+P23944+P43140); test: Evaluated for affinity at Alpha-1 adrenergic receptor of rat brain using [3H]prazosin as radioligand in radioligand binding assay
T1 sequence (P15823 whole entry): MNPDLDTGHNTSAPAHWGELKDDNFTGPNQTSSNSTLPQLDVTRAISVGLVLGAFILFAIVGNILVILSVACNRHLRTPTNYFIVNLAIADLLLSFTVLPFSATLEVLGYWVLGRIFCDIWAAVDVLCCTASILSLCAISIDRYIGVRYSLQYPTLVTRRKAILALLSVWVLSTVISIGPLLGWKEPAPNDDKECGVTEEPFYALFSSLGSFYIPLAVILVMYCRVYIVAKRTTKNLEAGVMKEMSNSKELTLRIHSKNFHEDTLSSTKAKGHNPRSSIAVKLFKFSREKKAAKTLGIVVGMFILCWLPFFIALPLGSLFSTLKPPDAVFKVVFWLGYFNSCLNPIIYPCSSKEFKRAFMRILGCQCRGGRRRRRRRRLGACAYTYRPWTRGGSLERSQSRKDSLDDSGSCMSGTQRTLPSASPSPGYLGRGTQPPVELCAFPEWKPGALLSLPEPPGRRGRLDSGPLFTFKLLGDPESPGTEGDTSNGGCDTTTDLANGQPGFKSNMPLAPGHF
T1 sequence (P23944 whole entry): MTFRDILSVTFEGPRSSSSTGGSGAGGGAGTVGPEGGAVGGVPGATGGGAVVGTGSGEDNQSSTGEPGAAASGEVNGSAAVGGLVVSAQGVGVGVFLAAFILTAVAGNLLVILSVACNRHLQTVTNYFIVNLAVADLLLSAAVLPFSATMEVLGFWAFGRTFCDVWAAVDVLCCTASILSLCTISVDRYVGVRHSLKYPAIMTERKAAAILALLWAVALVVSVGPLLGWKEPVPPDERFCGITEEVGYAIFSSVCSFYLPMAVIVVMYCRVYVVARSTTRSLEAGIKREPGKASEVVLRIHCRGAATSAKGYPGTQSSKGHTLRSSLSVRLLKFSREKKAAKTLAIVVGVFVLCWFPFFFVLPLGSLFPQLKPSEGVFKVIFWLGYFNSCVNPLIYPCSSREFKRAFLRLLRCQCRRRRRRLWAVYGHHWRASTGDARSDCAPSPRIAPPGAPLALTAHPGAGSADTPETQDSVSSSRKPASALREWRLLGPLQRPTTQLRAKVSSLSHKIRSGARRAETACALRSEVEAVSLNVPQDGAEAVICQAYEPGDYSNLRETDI
T1 sequence (P43140 whole entry): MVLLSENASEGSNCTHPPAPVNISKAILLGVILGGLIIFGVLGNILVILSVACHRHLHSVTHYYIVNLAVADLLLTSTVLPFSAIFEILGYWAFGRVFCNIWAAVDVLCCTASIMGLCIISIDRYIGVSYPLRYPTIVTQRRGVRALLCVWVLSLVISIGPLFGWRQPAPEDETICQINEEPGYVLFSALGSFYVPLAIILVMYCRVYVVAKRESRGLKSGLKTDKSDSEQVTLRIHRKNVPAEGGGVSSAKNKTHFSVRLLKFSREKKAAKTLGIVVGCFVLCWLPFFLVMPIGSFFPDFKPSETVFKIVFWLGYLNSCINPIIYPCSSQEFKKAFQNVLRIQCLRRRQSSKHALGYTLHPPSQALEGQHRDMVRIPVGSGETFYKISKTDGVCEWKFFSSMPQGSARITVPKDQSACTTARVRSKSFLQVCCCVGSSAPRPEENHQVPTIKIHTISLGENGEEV

Rattus norvegicus [5] = species on record: Rattus norvegicus; test: […] reversal of passive avoidance deficit in olfactory bulbectomized rats; type: functional
[6] = target: Serotonin 2 (5-HT2) receptor (Rattus norvegicus, UniProt P30994+P08909+P14842); test: Compound was evaluated for its binding affinity to 5-hydroxytryptamine 2 receptor in rat cortex using [3H]ketanserin radioligand assay
[7] = target: Beta-1 adrenergic receptor (Rattus norvegicus, UniProt P18090); test: Compound was evaluated for its binding affinity to beta-1 receptor in rat brain using [3H]- DHA radioligand assay; type: tissue-based
Beta-1 adrenergic receptor, sequence (P18090 whole entry): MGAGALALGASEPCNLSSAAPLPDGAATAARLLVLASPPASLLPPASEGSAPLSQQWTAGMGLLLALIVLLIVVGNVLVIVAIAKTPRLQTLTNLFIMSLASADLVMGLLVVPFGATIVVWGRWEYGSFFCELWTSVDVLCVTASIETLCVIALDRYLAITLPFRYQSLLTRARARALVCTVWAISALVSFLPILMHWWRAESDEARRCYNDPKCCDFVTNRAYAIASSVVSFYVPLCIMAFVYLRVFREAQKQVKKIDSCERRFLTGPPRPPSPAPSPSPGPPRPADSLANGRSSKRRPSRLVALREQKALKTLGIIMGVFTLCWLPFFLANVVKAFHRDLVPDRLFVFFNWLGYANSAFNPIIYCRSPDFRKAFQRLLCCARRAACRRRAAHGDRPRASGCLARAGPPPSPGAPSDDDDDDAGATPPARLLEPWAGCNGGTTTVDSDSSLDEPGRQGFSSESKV

[8] = target: T2, Adrenergic receptor alpha-2 (Rattus norvegicus, UniProt P22086+P19328+P22909); test: Evaluated for affinity at Alpha-2 adrenergic receptor of rat cortex using [3H]rauwolscine as radioligand in radioligand binding assay
T2 sequence (P22086 whole entry): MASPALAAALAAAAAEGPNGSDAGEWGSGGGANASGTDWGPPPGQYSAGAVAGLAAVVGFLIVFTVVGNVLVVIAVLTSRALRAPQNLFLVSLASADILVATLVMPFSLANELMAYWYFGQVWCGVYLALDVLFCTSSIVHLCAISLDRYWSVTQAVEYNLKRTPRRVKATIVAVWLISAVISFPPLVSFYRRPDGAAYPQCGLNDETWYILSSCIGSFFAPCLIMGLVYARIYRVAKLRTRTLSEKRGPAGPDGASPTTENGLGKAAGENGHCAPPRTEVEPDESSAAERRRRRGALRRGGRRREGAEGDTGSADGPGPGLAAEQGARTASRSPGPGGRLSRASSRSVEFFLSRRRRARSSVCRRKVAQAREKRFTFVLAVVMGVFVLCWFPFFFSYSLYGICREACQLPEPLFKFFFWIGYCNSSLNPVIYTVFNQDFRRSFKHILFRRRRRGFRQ
T2 sequence (P19328 whole entry): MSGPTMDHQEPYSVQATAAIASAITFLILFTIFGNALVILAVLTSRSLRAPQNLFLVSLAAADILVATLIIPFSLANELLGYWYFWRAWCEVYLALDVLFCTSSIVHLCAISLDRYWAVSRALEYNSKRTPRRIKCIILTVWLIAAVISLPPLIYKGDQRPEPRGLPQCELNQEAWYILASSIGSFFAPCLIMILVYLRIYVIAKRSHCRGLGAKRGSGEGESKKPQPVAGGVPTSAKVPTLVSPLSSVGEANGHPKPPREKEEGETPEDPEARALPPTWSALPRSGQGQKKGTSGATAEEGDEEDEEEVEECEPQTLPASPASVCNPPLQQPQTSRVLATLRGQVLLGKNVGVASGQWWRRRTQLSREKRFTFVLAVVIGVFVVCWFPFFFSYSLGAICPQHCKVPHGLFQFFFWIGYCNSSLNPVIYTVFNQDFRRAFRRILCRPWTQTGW
T2 sequence (P22909 whole entry): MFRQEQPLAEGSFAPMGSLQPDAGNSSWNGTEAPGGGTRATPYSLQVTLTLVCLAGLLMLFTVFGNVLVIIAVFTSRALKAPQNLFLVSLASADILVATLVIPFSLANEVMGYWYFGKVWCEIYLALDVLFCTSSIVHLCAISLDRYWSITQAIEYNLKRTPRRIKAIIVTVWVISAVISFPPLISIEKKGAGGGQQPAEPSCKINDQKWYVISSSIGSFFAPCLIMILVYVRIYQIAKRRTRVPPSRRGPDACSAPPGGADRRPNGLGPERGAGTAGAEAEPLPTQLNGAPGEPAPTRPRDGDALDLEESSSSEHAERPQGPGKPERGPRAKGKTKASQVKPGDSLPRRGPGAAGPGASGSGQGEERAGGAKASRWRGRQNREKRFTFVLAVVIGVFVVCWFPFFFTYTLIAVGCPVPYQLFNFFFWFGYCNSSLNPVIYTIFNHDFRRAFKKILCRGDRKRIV

D(1A) dopamine receptor = D(1A) dopamine receptor (Rattus norvegicus, UniProt P18901); test: Compound was evaluated for its binding affinity to Dopamine receptor D1 in rat striatum using [3H]- SCH-23390 radioligand assay; type: tissue-based
D(1A) dopamine receptor, sequence (P18901 whole entry): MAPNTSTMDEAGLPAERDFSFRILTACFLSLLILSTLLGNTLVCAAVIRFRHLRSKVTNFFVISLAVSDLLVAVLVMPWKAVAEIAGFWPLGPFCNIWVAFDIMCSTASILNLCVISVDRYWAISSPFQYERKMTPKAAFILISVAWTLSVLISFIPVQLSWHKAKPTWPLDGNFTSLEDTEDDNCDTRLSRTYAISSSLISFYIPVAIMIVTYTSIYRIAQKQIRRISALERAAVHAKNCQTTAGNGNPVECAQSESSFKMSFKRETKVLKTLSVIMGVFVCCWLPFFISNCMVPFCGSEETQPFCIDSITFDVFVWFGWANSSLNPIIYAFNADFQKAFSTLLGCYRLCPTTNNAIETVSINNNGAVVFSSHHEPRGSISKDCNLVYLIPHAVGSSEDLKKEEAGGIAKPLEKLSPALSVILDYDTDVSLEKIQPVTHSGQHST

Rattus norvegicus [9] = species on record: Rattus norvegicus; test: Evaluated for inhibition of norepinephrine, biogenic amine reuptake in synaptosomal rat brain preparations; type: functional
D(2) dopamine receptor = D(2) dopamine receptor (Rattus norvegicus, UniProt P61169); test: Compound was evaluated for its binding affinity to Dopamine receptor D2 in rat brain using [3H]- spiroperidol radioligand assay; type: tissue-based
D(2) dopamine receptor, sequence (P61169 whole entry): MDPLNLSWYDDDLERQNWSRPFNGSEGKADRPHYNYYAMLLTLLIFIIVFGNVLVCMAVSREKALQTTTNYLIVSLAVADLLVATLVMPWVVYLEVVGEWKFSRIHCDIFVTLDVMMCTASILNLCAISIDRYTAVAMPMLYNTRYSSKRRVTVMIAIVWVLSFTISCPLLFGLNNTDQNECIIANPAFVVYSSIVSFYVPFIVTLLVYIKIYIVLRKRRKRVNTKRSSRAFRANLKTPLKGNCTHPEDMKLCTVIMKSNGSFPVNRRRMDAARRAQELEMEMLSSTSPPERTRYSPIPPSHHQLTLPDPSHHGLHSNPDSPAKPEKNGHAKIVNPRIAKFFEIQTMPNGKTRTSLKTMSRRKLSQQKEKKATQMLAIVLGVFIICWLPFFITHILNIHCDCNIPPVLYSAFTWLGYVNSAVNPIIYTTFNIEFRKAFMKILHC

[10] = target: T2, Adrenergic receptor alpha-2; test: Evaluated for affinity at Alpha-2 adrenergic receptor of rat brain using [3H]rauwolscine as radioligand in radioligand binding assay
Rattus norvegicus [11] = species on record: Rattus norvegicus; test: Evaluated for inhibition of 5-Hydroxytryptamine, biogenic amine reuptake in synaptosomal rat brain preparations; type: functional

Row | SMILES | ED50 (Rattus norvegicus [1]) [mg/kg] | Ki [2] [µM] | IC50 (Rattus norvegicus [3]) [µM] | Ki [4] [µM] | ED50 (Rattus norvegicus [5]) [mg/kg] | Ki [6] [µM] | Ki [7] [µM] | Ki [8] [µM] | Ki (D(1A) dopamine receptor) [µM] | IC50 (Rattus norvegicus [9]) [µM] | Ki (D(2) dopamine receptor) [µM] | Ki [10] [µM] | IC50 (Rattus norvegicus [11]) [µM]
1 | COc1cccc2c1CCC[C@H]2CN(C)CCc1ccc2ccoc2c1 | 13.3 | 2.97 | 2.94 | 0.11 | 7.1 | 0.144 | 0.836 | 0.00201 | 0.744 | 0.865 | 0.052 |  | 
2 | COc1cccc2c1CCC[C@@H]2CN(C)CCc1ccc2ccoc2c1 |  |  | 4.75 | 0.241 |  |  |  |  |  | 0.476 |  | 0.11 | 
3 | CNCCC(Oc1ccc(C(F)(F)F)cc1)c1ccccc1 (stereo unspecified) [FLUOXETINE] | 11.7 |  | 16.2 |  | 12.1 |  |  |  |  | 3.28 |  |  | 0.308
4 | Fc1ccc([C@@H]2CCNC[C@H]2COc2ccc3c(c2)OCO3)cc1 [PAROXETINE] |  |  | 7.62 | 5.32 |  |  |  |  |  | 0.16 |  | 6.31 | 
5 | COC(=O)[C@H]1[C@H]2C[C@H]3c4[nH]c5ccccc5c4CCN3C[C@H]2CC[C@@H]1O [RAUWOLSCINE] |  |  | > 10 |  |  |  |  |  |  | > 10 |  |  | 
